{
  "source": "paper PMC2883770",
  "about": "(Journal of natural products, 2009)",
  "key": {"[1]": {"test_system": "MCF-7 human breast cancer cells", "assay": "Cytotoxicity assay against MCF-7 cells", "type": "cell-based"}, "[2]": {"test_system": "HT-29 human colon cancer cells", "assay": "Cytotoxicity assay against HT-29 cells", "type": "cell-based"}, "HT-29 cells": {"test_system": "HT-29 cells", "assay": "Mitochondrial transmembrane potential", "type": "cell-based, human", "details": "2 h treatment, JC-1 dye"}},
  "data": [
    {"smiles": "CC(=O)O[C@@H]([C@H]1C[C@@H]1C(=O)C(C)OC(=O)/C=C/c1ccc(O)cc1)[C@H]1CC=CC(=O)O1", "note": "(stereo partly drawn) [Compound 1, Brevipolide A]", "values": [
      {"measurement": "ED50 against MCF-7 cells", "setting": "[1]", "value": "> 10", "unit": "µM"},
      {"measurement": "ED50 against HT-29 cells", "setting": "[2]", "value": 5.8, "unit": "µM"}
    ]},
    {"smiles": "CC(=O)O[C@@H]([C@H]1C[C@@H]1C(=O)C(C)OC(=O)/C=C\\c1ccc(O)cc1)[C@H]1CC=CC(=O)O1", "note": "(stereo partly drawn) [Compound 2, Brevipolide B]", "values": [
      {"measurement": "ED50 against MCF-7 cells", "setting": "[1]", "value": 6.1, "unit": "µM"},
      {"measurement": "ED50 against HT-29 cells", "setting": "[2]", "value": 6.1, "unit": "µM"}
    ]},
    {"smiles": "CC(OC(=O)/C=C/c1ccc(O)c(O)c1)C(=O)[C@H]1C[C@@H]1[C@H](O)[C@H]1CC=CC(=O)O1", "note": "(stereo partly drawn) [Compound 3, Brevipolide C]", "values": [
      {"measurement": "ED50 in mitochondrial transmembrane potential assay", "setting": "HT-29 cells", "value": 0.0085, "unit": "µM"}
    ]},
    {"smiles": "CC(OC(=O)/C=C\\c1ccc(O)cc1)C(=O)[C@H]1C[C@@H]1[C@H](O)[C@H]1CC=CC(=O)O1", "note": "(stereo partly drawn) [Compound 6, Brevipolide F]", "values": [
      {"measurement": "ED50 against MCF-7 cells", "setting": "[1]", "value": 6.7, "unit": "µM"},
      {"measurement": "ED50 against HT-29 cells", "setting": "[2]", "value": 7.5, "unit": "µM"}
    ]},
    {"smiles": "COc1ccc(-c2oc3cc(OC)c(O)c(O)c3c(=O)c2OC)cc1O", "note": "[Compound 8, 5,6,3′-trihydroxy-3,7,4′-trimethoxyflavone]", "values": [
      {"measurement": "ED50 in mitochondrial transmembrane potential assay", "setting": "HT-29 cells", "value": 0.31, "unit": "µM"},
      {"measurement": "ED50 against HT-29 cells", "setting": "[2]", "value": 3.6, "unit": "µM"}
    ]}
  ]
}
